Experimental data: ChEMBL document CHEMBL4354830, “Discovery of Benzo[cd]indol-2(1H)-ones and Pyrrolo[4,3,2-de]quinolin-2(1H)-ones as Bromodomain and Extra-Terminal Domain (BET) Inhibitors with Selectivity for the First Bromodomain with Potential High Efficiency against Acute Gouty Arthritis” (J Med Chem, 2019)

Tests used:
[1] = molecular target: T1, Bromodomain-containing protein 4 (Homo sapiens, UniProt O60885); experiment: Displacement of tetra-acetylated histone H4 peptide (1-21) from recombinant human N-terminal His-tagged BRD4 BD2 (349 to 460 residues) expressed in Escherichia coli incubated for 30 mins followed by further incubation with tetra-acetylated histone H4 peptide (1-21) for 30 mins by Alphascreen assay
[2] = molecular target: T1, Bromodomain-containing protein 4; experiment: Displacement of tetra-acetylated histone H4 peptide (1-21) from recombinant human N-terminal His-tagged BRD4 BD1 (44 to 170 residues) expressed in Escherichia coli incubated for 30 mins followed by further incubation with tetra-acetylated histone H4 peptide (1-21) for 30 mins by Alphascreen assay
[3] = molecular target: T1, Bromodomain-containing protein 4; experiment: Binding affinity to recombinant human N-terminal His-tagged BRD4 BD1 (44 to 170 residues) expressed in Escherichia coli assessed as change in melting temperature at 10 uM by SYPRO Orange based differential scanning fluorimetry
[4] = test system: RAW264.7; experiment: Inhibition of LPS-induced NO overproduction in mouse RAW264.7 cells at 1 uM incubated for 2 hrs followed by LPS stimulation and measured after 22 hrs by Griess reagent based assay relative to control; type: functional; settings: for inhibition at 1 µM: Mus musculus, RAW264.7
[5] = molecular target: T1, Bromodomain-containing protein 4; experiment: Displacement of tetra-acetylated histone H4 peptide (1-21) from recombinant human N-terminal His-tagged BRD4 BD1 (44 to 170 residues) expressed in Escherichia coli assessed as protein activity at 2 uM incubated for 30 mins followed by further incubation with tetra-acetylated histone H4 peptide (1-21) for 30 mins by Alphascreen assay

Compound: CN1C(=O)c2cccc3c(NS(=O)(=O)c4ccc(Cl)cc4)ccc1c23
- IC50 [1]: 2720 nM
- IC50 [2]: 167 nM
- ΔTm [3]: 6.5 °C
- inhibition at 1 µM [4]: 15.1%

Compound: COc1ccccc1S(=O)(=O)Nc1ccc2c3c(cc(NCC4CCN(C)CC4)nc13)C(=O)N2C
- IC50 [1]: 1280 nM
- IC50 [2]: 113 nM
- inhibition at 1 µM [4]: 47.2%

Compound: COc1ccccc1S(=O)(=O)Nc1ccc2c3c(cc(-c4ccoc4)nc13)C(=O)N2C
- IC50 [1]: 459 nM
- IC50 [2]: 37 nM
- inhibition at 1 µM [4]: 66.3%

Compound: COc1ccccc1S(=O)(=O)Nc1ccc2c3c(cc(N4CCN(C)CC4)nc13)C(=O)N2C
- IC50 [1]: 2120 nM
- IC50 [2]: 100 nM
- inhibition at 1 µM [4]: 92.5%

Compound: COc1ccccc1S(=O)(=O)Nc1ccc2c3c(cc(N4CCN(C(=O)OC(C)(C)C)CC4)nc13)C(=O)N2C
- IC50 [1]: 2170 nM
- IC50 [2]: 334 nM

Compound: CN1C(=O)c2cc(-c3ccoc3)cc3c(NS(=O)(=O)c4ccc(Cl)cc4)ccc1c23
- Activity [5]: 56.6%

Compound: Cc1ccc(S(=O)(=O)Nc2ccc3c4c(ccnc24)C(=O)N3C)cc1
- IC50 [1]: 6620 nM
- IC50 [2]: 1570 nM
- ΔTm [3]: 5.12 °C

Compound: Cc1cc(/N=N/c2ccc(S(=O)(=O)Nc3ccc(C#N)cc3)cc2)cc(C)c1O
- IC50 [1]: 7070 nM
- IC50 [2]: 328 nM
- inhibition at 1 µM [4]: 43.4%

Compound: CCN1C(=O)c2cccc3c(NS(=O)(=O)c4ccc(Cl)cc4)ccc1c23
- IC50 [1]: 2720 nM
- IC50 [2]: 237 nM
- ΔTm [3]: 6.36 °C

Compound: COc1cc(Cl)ccc1S(=O)(=O)Nc1ccc2c3c(cccc13)C(=O)N2C
- IC50 [1]: 3470 nM
- IC50 [2]: 299 nM
- ΔTm [3]: 7.1 °C

Compound: CCCn1cc(-c2cc3c4c(ccc(NS(=O)(=O)c5ccc(Cl)cc5OC)c4c2)N(C)C3=O)cn1
- IC50 [1]: 320 nM
- IC50 [2]: 107 nM

Compound: COc1ccccc1S(=O)(=O)Nc1ccc2c3c(cc(NC(C)(C)C)nc13)C(=O)N2C
- IC50 [1]: 2080 nM
- IC50 [2]: 573 nM

Compound: CN1C(=O)c2cc(-c3cnn(C4CC4)c3)cc3c(NS(=O)(=O)c4ccc(Cl)cc4F)ccc1c23
- Activity [5]: 65.2%

Compound: CCCn1cc(-c2cc3c4c(ccc(NS(=O)(=O)c5ccccc5OC)c4c2)N(C)C3=O)cn1
- IC50 [1]: 266 nM
- IC50 [2]: 43.7 nM
- inhibition at 1 µM [4]: 106%

Compound: CN1C(=O)c2cccc3c(NS(=O)(=O)c4ccc(F)cc4Cl)ccc1c23
- IC50 [1]: 3830 nM
- IC50 [2]: 91.3 nM
- ΔTm [3]: 6.23 °C
- inhibition at 1 µM [4]: 98.1%

Compound: COc1ccccc1S(=O)(=O)Nc1ccc2c3c(cccc13)C(=O)N2C
- IC50 [1]: 2480 nM
- IC50 [2]: 49.5 nM
- ΔTm [3]: 8.72 °C
- inhibition at 1 µM [4]: 51.4%

Compound: COc1ccccc1S(=O)(=O)Nc1ccc2c3c(cc(-c4cnn(C5CC5)c4)cc13)C(=O)N2C
- IC50 [1]: 238 nM
- IC50 [2]: 14.4 nM
- inhibition at 1 µM [4]: 83.7%

Compound: CN1C(=O)c2cc(Cl)nc3c(NS(=O)(=O)c4ccc(Cl)cc4)ccc1c23
- IC50 [2]: 2600 nM

Compound: COc1ccccc1S(=O)(=O)Nc1ccc2c3c(ccnc13)C(=O)N2C
- IC50 [1]: 4600 nM
- IC50 [2]: 205 nM
- ΔTm [3]: 7.64 °C
- inhibition at 1 µM [4]: 94.3%

Compound: COc1ccccc1S(=O)(=O)Nc1ccc2c3c(cc(N[C@H](C)c4ccccn4)nc13)C(=O)N2C
- IC50 [2]: 2230 nM

Compound: CN1C(=O)c2cc(-c3cnn(C4CC4)c3)cc3c(NS(=O)(=O)c4ccc(Cl)cc4)ccc1c23
- IC50 [2]: 666 nM

Compound: COc1ccccc1S(=O)(=O)Nc1ccc2c3c(cc(-c4cnn(C5CC5)c4)nc13)C(=O)N2C
- IC50 [1]: 107 nM
- IC50 [2]: 16.6 nM

Compound: CN1C(=O)c2ccnc3c(NS(=O)(=O)c4ccc(Cl)cc4)ccc1c23
- IC50 [1]: 20500 nM
- IC50 [2]: 3470 nM
- ΔTm [3]: 6.53 °C

Compound: CN1C(=O)c2cccc3c(NS(=O)(=O)c4ccccc4OC(F)(F)F)ccc1c23
- IC50 [2]: 3890 nM
- ΔTm [3]: 4.73 °C

Compound: COc1ccccc1S(=O)(=O)Nc1ccc2c3c(cc(Cl)nc13)C(=O)N2C
- IC50 [2]: 656 nM

Compound: Cc1sc2c(c1C)C(c1ccc(Cl)cc1)=N[C@@H](CC(=O)OC(C)(C)C)c1nnc(C)n1-2
- inhibition (INH) [4]: 47.56%

Compound: Cc1ccccc1NS(=O)(=O)c1ccc2c3c(cccc13)C(=O)N2C
- IC50 [2]: 15500 nM
- ΔTm [3]: 2.23 °C

Compound: CN1C(=O)c2cccc3c(NS(=O)(=O)c4c(F)cccc4F)ccc1c23
- IC50 [2]: 9070 nM
- ΔTm [3]: 3.73 °C

Compound: CN1C(=O)c2cc(-c3cnn(C4CC4)c3)cc3c(NS(=O)(=O)c4ccc(Cl)cc4Cl)ccc1c23
- Activity [5]: 61.8%

Compound: CN1C(=O)c2cccc3c(NS(=O)(=O)c4cccc(Cl)c4F)ccc1c23
- IC50 [2]: 1700 nM
- ΔTm [3]: 4.83 °C

Compound: CN1C(=O)c2cccc3c(NS(=O)(=O)c4ccccc4Cl)ccc1c23
- IC50 [1]: 6050 nM
- IC50 [2]: 1530 nM
- ΔTm [3]: 5.37 °C

Compound: COc1ccccc1S(=O)(=O)Nc1ccc2c3c(cc(N4CCOCC4)nc13)C(=O)N2C
- IC50 [1]: 808 nM
- IC50 [2]: 95.2 nM
- inhibition at 1 µM [4]: 100%

Compound: CN1C(=O)c2cccc3c(NS(=O)(=O)c4cccc5cccnc45)ccc1c23
- IC50 [1]: 260 nM
- IC50 [2]: 329 nM
- ΔTm [3]: 4.13 °C

Compound: CCOC(=O)CC1CCN(c2cc3c4c(ccc(NS(=O)(=O)c5ccccc5OC)c4n2)N(C)C3=O)CC1
- IC50 [2]: 709 nM

Compound: Cc1ccccc1S(=O)(=O)Nc1ccc2c3c(cccc13)C(=O)N2C
- IC50 [2]: 709 nM
- ΔTm [3]: 5.1 °C

Compound: COc1ccccc1S(=O)(=O)Nc1ccc2c3c(cc(NCCN4CCCCC4)nc13)C(=O)N2C
- IC50 [1]: 7070 nM
- IC50 [2]: 328 nM

Compound: COc1ccccc1S(=O)(=O)Nc1ccc2c3c(cc(NCC4CCOCC4)nc13)C(=O)N2C
- IC50 [2]: 503 nM

Compound: COc1ccccc1S(=O)(=O)Nc1ccc2c3c(cc(NCCN4CCN(C)CC4)nc13)C(=O)N2C
- IC50 [1]: 1520 nM
- IC50 [2]: 223 nM
- inhibition at 1 µM [4]: 39.6%

Compound: Cc1ccc(S(=O)(=O)Nc2ccc3c4c(cccc24)C(=O)N3C)cc1
- IC50 [1]: 2280 nM
- IC50 [2]: 545 nM
- ΔTm [3]: 7.36 °C

Compound: COc1ccccc1S(=O)(=O)Nc1ccc2c3c(cc(N4CCC(CO)CC4)nc13)C(=O)N2C
- IC50 [1]: 29600 nM
- IC50 [2]: 169 nM

Compound: CN1C(=O)c2cc(N3CCOCC3)nc3c(NS(=O)(=O)c4ccc(Cl)cc4)ccc1c23
- IC50 [2]: 217 nM

Compound: CN1CCN(c2cc3c4c(ccc(NS(=O)(=O)c5ccc(Cl)cc5)c4n2)N(C)C3=O)CC1
- IC50 [2]: 391 nM

Compound: COc1ccccc1S(=O)(=O)Nc1ccc2c3c(cc(-c4cnn(Cc5ccccc5)c4)cc13)C(=O)N2C
- IC50 [2]: 205 nM

Compound: CN1C(=O)c2cccc3c(NS(=O)(=O)c4cccs4)ccc1c23
- IC50 [2]: 3720 nM
- ΔTm [3]: 4.02 °C

Compound: COc1ccccc1S(=O)(=O)Nc1ccc2c3c(cc(-c4ccco4)nc13)C(=O)N2C
- IC50 [1]: 982 nM
- IC50 [2]: 35.1 nM
- inhibition at 1 µM [4]: 64.9%

Compound: COc1ccccc1S(=O)(=O)Nc1ccc2c3c(cc(-c4cnn(C)c4)cc13)C(=O)N2C
- IC50 [1]: 435 nM
- IC50 [2]: 17.4 nM
- inhibition at 1 µM [4]: 102%

Compound: COc1ccccc1S(=O)(=O)Nc1ccc2c3c(cc(-c4cnn(C)c4)nc13)C(=O)N2C
- IC50 [1]: 289 nM
- IC50 [2]: 12.6 nM

Compound: O=C1Nc2ccc(NS(=O)(=O)c3ccc(Cl)cc3)c3cccc1c23
- IC50 [1]: 15500 nM
- IC50 [2]: 769 nM
- ΔTm [3]: 3.73 °C

Compound: CN1C(=O)c2cc(-c3cnn(C)c3)cc3c(NS(=O)(=O)c4ccc(Cl)cc4)ccc1c23
- IC50 [2]: 348 nM

Compound: COc1ccccc1S(=O)(=O)Nc1ccc2c3c(cc(NC4CC4)nc13)C(=O)N2C
- IC50 [1]: 660 nM
- IC50 [2]: 271 nM

Compound: COc1ccccc1S(=O)(=O)Nc1ccc2c3c(cc(-c4ccoc4)cc13)C(=O)N2C
- IC50 [2]: 164 nM

Compound: COc1ccccc1S(=O)(=O)Nc1ccc2c3c(cc(-n4ccnc4)nc13)C(=O)N2C
- IC50 [1]: 4110 nM
- IC50 [2]: 889 nM

Compound: COc1cc(OC)c2c(=O)[nH]c(-c3cc(C)c(OCCO)c(C)c3)nc2c1 [APABETALONE]
- inhibition at 1 µM [4]: 9.17%

Compound: CN1C(=O)c2cccc3c(NS(=O)(=O)c4cccnc4)ccc1c23
- IC50 [1]: 13700 nM
- IC50 [2]: 2440 nM
- ΔTm [3]: 2.3 °C

Compound: Cc1cc(F)ccc1S(=O)(=O)Nc1ccc2c3c(cccc13)C(=O)N2C
- IC50 [2]: 810 nM
- ΔTm [3]: 4.32 °C

Compound: COc1cc(Cl)ccc1S(=O)(=O)Nc1ccc2c3c(cc(-c4cnn(C5CC5)c4)cc13)C(=O)N2C
- IC50 [1]: 435 nM
- IC50 [2]: 37.5 nM
